# pIC50: −log10 of the molar value.
# Assays:
# [1] = target: Phosphatidylinositol 4,5-bisphosphate 3-kinase catalytic subunit alpha isoform (Homo sapiens, UniProt P42336); test: Inhibition of PI3Kalpha (unknown origin) using PIP2 as substrate pretreated for 15 mins followed by substrate addition measured after 1 hr
# [2] = target: Serine/threonine-protein kinase pim-1 (Homo sapiens, UniProt P11309); test: Inhibition of PIM1 (unknown origin) using TAMRA-ERMRPRKRQGSVRRRV-NH2 as substrate pretreated for 30 mins followed by substrate addition measured after 1 hr by IMAP assay
# [3] = target: T1, Glycogen synthase kinase-3 beta (Homo sapiens, UniProt P49841); test: Inhibition of GSK3beta (unknown origin) after 1 hr by fluorescence polarization assay
# [4] = target: T2, Phosphatidylinositol 4,5-bisphosphate 3-kinase catalytic subunit delta isoform (Homo sapiens, UniProt O00329); test: Inhibition of PI3Kdelta (unknown origin) using PIP2 as substrate pretreated for 15 mins followed by substrate addition measured after 1 hr
# T2 sequence (O00329 whole entry): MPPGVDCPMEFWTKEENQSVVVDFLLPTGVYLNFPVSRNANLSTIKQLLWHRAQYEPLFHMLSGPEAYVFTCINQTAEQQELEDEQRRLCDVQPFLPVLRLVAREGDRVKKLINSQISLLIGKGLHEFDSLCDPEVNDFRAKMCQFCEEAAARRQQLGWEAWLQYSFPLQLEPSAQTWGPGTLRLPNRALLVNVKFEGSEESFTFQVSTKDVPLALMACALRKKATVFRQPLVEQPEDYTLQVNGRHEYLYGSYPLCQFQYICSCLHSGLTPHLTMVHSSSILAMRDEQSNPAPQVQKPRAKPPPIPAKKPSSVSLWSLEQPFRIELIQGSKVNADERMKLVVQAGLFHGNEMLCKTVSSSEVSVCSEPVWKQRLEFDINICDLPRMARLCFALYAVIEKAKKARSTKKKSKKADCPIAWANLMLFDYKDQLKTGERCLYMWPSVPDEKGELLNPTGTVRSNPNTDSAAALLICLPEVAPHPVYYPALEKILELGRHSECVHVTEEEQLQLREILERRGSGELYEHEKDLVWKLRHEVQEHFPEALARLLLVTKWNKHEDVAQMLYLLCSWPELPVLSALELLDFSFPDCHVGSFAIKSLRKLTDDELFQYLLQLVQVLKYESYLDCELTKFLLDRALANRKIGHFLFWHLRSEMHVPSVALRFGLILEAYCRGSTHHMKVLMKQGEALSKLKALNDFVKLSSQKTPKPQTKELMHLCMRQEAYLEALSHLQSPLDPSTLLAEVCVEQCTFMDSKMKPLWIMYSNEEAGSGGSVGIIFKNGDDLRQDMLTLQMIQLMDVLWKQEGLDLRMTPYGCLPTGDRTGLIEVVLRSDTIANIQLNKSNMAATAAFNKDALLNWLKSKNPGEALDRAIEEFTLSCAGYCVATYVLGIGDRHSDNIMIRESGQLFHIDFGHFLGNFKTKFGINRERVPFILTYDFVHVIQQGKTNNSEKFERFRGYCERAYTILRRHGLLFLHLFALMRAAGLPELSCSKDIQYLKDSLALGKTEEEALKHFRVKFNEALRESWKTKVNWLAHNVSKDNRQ
# [5] = target: Phosphatidylinositol 4,5-bisphosphate 3-kinase catalytic subunit beta isoform (Homo sapiens, UniProt P42338); test: Inhibition of PI3Kbeta (unknown origin) using PIP2 as substrate pretreated for 15 mins followed by substrate addition measured after 1 hr
# [6] = target: Phosphatidylinositol 4,5-bisphosphate 3-kinase catalytic subunit gamma isoform (Homo sapiens, UniProt P48736); test: Inhibition of PI3Kgamma (unknown origin) using PIP2 as substrate pretreated for 15 mins followed by substrate addition measured after 1 hr
# [7] = target: T1, Glycogen synthase kinase-3 beta; test: Inhibition of human GSK3beta using YRRAAVPPSPSLSRHSSPHQ(pS)EDEEE as substrate in presence of [gamma-33P]-ATP
# Homo sapiens = species: Homo sapiens; test: Selectivity ratio of pIC50 for ALK5 (unknown origin) to pIC50 for PI3Kdelta (unknown origin)
# T1 sequence (P49841 whole entry, canonical isoform): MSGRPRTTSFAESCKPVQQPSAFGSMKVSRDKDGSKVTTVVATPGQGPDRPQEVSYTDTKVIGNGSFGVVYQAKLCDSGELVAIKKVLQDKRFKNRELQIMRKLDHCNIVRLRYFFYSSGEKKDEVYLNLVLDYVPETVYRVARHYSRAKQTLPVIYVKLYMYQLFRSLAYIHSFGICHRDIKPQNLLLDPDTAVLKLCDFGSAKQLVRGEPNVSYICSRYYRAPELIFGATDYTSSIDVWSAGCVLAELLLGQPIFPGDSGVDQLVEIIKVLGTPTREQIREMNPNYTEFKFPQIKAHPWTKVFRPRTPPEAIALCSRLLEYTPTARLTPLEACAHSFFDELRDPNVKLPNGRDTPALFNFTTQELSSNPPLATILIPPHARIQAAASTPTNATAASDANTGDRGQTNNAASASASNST
# Sequence of Phosphatidylinositol 4,5-bisphosphate 3-kinase catalytic subunit beta isoform (P42338 whole entry, canonical isoform): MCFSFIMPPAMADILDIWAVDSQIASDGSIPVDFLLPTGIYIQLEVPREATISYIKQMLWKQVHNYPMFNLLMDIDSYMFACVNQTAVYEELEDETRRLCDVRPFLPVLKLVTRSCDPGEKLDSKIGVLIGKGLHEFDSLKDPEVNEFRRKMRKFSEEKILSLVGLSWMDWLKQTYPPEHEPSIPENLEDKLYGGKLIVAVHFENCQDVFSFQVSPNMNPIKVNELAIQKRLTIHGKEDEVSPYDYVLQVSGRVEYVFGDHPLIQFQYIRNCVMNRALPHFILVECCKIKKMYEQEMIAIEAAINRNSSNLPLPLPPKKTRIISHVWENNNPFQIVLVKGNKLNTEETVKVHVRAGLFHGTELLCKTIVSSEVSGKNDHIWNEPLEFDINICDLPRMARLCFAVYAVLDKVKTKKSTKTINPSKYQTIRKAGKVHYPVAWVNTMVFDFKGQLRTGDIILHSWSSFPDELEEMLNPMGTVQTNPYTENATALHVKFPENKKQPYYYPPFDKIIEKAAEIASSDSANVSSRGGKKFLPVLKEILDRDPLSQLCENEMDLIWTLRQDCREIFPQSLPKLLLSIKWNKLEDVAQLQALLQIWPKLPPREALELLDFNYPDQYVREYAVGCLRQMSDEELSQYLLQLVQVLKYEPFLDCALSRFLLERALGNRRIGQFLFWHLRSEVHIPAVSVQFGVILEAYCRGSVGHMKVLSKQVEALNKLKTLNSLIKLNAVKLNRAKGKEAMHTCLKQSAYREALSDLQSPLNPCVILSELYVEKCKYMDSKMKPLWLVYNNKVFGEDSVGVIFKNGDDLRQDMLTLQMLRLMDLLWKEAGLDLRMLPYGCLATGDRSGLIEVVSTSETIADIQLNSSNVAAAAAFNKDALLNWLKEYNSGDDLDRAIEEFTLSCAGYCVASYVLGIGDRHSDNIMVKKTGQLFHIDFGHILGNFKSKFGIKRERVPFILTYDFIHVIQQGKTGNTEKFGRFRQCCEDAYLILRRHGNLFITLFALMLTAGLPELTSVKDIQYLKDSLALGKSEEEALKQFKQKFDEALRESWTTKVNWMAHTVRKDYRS
# Sequence of Phosphatidylinositol 4,5-bisphosphate 3-kinase catalytic subunit gamma isoform (P48736 whole entry, canonical isoform): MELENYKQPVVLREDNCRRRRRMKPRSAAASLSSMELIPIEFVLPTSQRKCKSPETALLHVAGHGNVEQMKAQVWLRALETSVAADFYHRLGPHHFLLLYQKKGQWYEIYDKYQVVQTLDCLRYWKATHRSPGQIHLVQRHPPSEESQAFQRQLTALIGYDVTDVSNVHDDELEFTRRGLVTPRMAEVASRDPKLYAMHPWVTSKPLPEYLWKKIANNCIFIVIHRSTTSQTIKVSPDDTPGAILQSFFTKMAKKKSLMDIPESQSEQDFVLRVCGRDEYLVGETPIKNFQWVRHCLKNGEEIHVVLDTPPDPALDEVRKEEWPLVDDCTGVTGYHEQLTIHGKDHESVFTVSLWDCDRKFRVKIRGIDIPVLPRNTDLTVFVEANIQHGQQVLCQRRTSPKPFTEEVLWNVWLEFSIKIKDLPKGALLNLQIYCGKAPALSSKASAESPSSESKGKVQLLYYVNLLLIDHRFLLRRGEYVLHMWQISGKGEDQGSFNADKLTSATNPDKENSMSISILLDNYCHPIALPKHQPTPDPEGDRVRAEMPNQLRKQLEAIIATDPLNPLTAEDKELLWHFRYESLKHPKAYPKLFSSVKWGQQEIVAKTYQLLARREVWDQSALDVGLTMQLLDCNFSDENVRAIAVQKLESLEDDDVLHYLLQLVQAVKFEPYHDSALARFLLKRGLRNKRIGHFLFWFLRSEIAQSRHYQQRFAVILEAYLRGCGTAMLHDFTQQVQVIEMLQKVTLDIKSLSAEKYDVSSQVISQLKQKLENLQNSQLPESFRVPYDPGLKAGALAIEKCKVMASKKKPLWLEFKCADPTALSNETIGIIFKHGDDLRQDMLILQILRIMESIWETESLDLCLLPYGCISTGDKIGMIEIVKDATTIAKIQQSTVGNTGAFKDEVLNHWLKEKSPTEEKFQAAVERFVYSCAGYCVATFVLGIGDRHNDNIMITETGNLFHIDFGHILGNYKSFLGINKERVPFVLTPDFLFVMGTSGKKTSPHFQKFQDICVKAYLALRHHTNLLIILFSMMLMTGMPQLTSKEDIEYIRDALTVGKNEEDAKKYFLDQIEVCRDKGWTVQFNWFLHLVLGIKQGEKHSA
# Sequence of Serine/threonine-protein kinase pim-1 (P11309 whole entry): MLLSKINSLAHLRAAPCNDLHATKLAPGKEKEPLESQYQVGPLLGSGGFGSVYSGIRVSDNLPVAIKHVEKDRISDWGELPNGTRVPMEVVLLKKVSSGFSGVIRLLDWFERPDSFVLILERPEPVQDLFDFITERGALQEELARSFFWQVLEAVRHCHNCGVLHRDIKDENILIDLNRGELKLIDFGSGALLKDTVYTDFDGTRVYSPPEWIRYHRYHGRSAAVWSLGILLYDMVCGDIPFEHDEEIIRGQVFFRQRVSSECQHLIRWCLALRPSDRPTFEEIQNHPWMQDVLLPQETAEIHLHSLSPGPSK
# Sequence of Phosphatidylinositol 4,5-bisphosphate 3-kinase catalytic subunit alpha isoform (P42336 whole entry, canonical isoform): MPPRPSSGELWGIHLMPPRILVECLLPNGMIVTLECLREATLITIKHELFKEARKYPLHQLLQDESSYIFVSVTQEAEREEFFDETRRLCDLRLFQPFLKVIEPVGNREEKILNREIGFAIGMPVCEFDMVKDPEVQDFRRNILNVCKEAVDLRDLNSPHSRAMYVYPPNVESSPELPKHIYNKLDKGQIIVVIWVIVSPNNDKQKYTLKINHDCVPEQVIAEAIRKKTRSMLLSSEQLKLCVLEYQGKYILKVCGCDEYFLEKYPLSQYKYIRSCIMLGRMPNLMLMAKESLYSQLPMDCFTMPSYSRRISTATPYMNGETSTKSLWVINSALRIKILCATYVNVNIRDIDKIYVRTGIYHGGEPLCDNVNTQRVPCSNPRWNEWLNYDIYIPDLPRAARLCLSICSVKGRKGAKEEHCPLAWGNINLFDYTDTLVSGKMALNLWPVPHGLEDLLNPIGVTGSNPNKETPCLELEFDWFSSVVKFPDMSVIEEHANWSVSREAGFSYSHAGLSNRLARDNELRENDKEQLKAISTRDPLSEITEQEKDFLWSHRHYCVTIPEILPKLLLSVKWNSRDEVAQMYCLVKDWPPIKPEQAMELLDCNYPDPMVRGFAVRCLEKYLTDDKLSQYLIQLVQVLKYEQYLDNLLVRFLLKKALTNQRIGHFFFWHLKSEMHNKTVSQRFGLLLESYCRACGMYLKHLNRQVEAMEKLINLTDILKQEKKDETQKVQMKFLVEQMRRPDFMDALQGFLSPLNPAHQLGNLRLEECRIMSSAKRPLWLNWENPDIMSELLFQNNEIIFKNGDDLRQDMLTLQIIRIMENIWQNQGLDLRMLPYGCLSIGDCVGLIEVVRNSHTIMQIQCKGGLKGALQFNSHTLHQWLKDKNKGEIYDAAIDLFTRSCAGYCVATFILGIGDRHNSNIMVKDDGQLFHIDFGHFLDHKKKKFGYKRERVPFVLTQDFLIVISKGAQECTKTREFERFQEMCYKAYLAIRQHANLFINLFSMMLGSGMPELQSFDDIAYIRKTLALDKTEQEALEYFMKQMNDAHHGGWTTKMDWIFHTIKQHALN
SMILES,pIC50 [1],pIC50 [2],pIC50 [3],pIC50 [4],pIC50 [5],pIC50 [6],pIC50 [7],Ratio IC50 (Homo sapiens)
O=C(Nc1cc(-c2cccc(O)c2)cc2[nH]ncc12)c1ccccn1,4.60,5.70,5.80,5.80,4.50,5.10,–,–
O=C(Nc1cc(-c2ccc(O)cc2)cc2[nH]ncc12)C1CC1,4.60,6.50,6.20,5.20,4.60,< 4.60,–,–
O=C(Nc1cc(-c2ccc(O)cc2)cc2[nH]ncc12)c1ccccn1,< 4.60,6.90,–,6.30,< 4.60,5.30,5.80,–
O=C(Nc1n[nH]c2cc(-c3ccc(O)cc3)ccc12)C1CC1,< 4.60,–,–,4.60,< 4.60,< 4.60,–,–
O=C(Nc1cc(-c2ccccc2)cc2[nH]ncc12)C1CC1,4.60,4.80,4.50,4.70,< 4.60,4.60,–,–
O=C(Nc1cc(-c2cccc3[nH]ccc23)cc2[nH]ncc12)C1CC1,< 4.60,4.80,5.10,6.00,4.60,< 4.60,–,–
O=C(Nc1cc(-c2cccc(O)c2)cc2[nH]ncc12)C1CC1,4.70,5.60,5.90,5.40,4.70,5.10,–,–
O=C(Nc1cc(-c2ccc3cc[nH]c3c2)cc2[nH]ncc12)c1ccccn1,4.60,–,< 4.60,5.50,4.90,4.80,–,–
O=C(Nc1cc(-c2cccc3[nH]ccc23)cc2[nH]ncc12)c1ccccn1,–,5.60,5.50,–,–,–,4.70,< 10
